The results in this text go back to US20250084416A1, “TARGETING OF XKR8 IN THERAPIES” (University of Pittsburgh - Of the Commonwealth System of …, priority 2022, published 2025).

Series [1] relates to hXkr8 mRNA. Kind of series: qRT-PCR of Xkr8 mRNA in cultured human tumor cells (HT-29, PANC-1). The format is cell-based. The following applies: for Xkr8 mRNA expression: 24 h treatment. As for the experimental part: (§1) To examine the effect of different chemotherapeutic agents on the expression level of Xkr8 mRNA, CT26, Panc02, PANC-1 or HT29 cells were treated with various concentrations of FuOXP, DOX or PTX. Twenty-four h later, cells were collected and subjected to qRT-PCR of mXkr8 or hXkr8 as detailed below.
(§2) To examine the impact of ActD treatment on the expression level of Xkr8 mRNA, CT26 or PANC-1 tumor cells were treated with FuOXP (10 μM) for 12 h followed by addition of ActD (2 μM). At 2 or 4 h following ActD treatment, cells were collected and subjected to qRT-PCR of Xkr8 mRNA as described below. In another study, cells were treated with NAC (2.5 mM) for 12 h followed by treatment with FuOXP, DOX or PTX for another 12 h. qRT-PCR of Xkr8 mRNA was then similarly performed.
(§3) Tumor tissues or cells collected from the above experiments were subjected to RNA extraction by TRIzol™. cDNA was generated from the purified RNA using QuantiTect Reverse Transcription Kit (Qiagen, MD, USA) according to the manufacturer's instructions. Quantitative real-time PCR was performed using SYBR Green Mix on a 7900 HT PCR instrument (Applied Biosystems, MA, USA). Relative target mRNA levels were analyzed using delta-delta-Ct calculations and normalized to GAPDH.

Series [2] relates to mXkr8 mRNA. Kind of series: qRT-PCR of Xkr8 mRNA in cultured murine tumor cells (CT26, Panc02). The format is cell-based. The following applies: for Xkr8 mRNA expression: 24 h treatment. As for the experimental part: as §1, §2, §3
(Quantitative PCR measures a nucleic acid by following its amplification.)

Series [3] deals with hXkr8 protein. Kind of series: Western blot of hXkr8 protein in HT29 and PANC-1 cells. The format is cell-based, human. The note with it: PANC-1 cells; NAC 12 h then drug 12 h. The method, then:
Analysis of hXkr8 protein level by Western blot: Cultured HT29 or PANC-1 cells received similar treatments as described above. Cells were then lysed with RIPA lysis buffer (Thermo Fisher Scientific, MA, USA) by gently shaking on ice for 30 min. After centrifugation at 12,300 RPM for 10 min, the supernatants were collected, and the concentrations of proteins were measured using Pierce BCA Protein Assay Kit (ThermoFisher Scientific, MA, USA). The protein samples were denatured by boiling for 5 min and loaded onto 10% SDS-PAGE gel for electrophoresis. The proteins in the gels were subsequently transferred onto PVDF membranes (Bio-Rad, CA, USA). The membranes were then incubated in blocking buffer (5% non-fat dry milk in TBST) for 1 h at RT, followed by incubation with anti-hXkr8 polyclonal antibody (ThermoFisher Scientific, MA, USA) in antibody dilution buffer (5% BSA in TBST, 1/2000 dilution) with gentle agitation overnight at 4° C. After washing with TBST for three times, the membranes were subsequently incubated with the secondary HRP-linked goat anti-rabbit IgG antibody (Cell Signaling Technology, MA, USA) for 1 h at RT. After another three washes with TBST, the membranes were incubated with Pierce™ ECL Western Blotting Substrate (ThermoFisher Scientific, MA, USA) for 1 min. Protein expression was normalized against β-Tubulin expression.
(In general: In western blotting, separated proteins are transferred to a membrane and probed.)

In series [4] the test system is luciferase in MC38-Luc cells. Description: In vitro luciferase gene knockdown. It is filed as cell-based, murine. The note with it: 1 h pretreatment prior to siLUC NP transfection.
The subject of series [5] is HUVECa and CT26 cells. Description: Transwell co-culture transcytosis (HUVECa upper, CT26 lower chamber). The following applies: endocytosis inhibitor. It is filed as cell-based. As for the experimental part:
To explore a potential role of transcytosis in tumor targeting, a co-culture experiment with HUVECa and CT26 cells using a Transwell plate was conducted.

Series [6] relates to CT26 tumor cells. Kind of series: Surface PS on CT26 tumor cells and EVs (Annexin V flow). The note with it: CT26 tumor cells in vitro. It is filed as cell-based, murine. As for the experimental part: Effect of Xkr8 knockdown on the PS expression levels of tumor cells and EVs following FuOXP treatment: CT26 cancer cells were first treated with siXkr8 NPs for 72 h and then treated with FuOXP/siXkr8-coloaded NPs for another 24 h. EVs were isolated from culture medium using gradient ultra-centrifugation according to a previously established protocol^48. Briefly, culture medium was collected and centrifuged for 20 min at 1,800 RPM at 4° C. to clear dead cells and cell debris. The supernatant was then transferred to a polycarbonate ultracentrifuge tube and centrifuged at 9,000 RPM for 35 min at 4° C. to collect larger EVs. The supernatant was centrifuged again at 30,000 RPM for 80 min at 4° C. and the pellet was resuspended in 100 μL of PBS for smaller EVs collection. The levels of surface PS on tumor cells and EVs were analyzed by flow using BV421-labeled Annexin V. For detection of EVs by flow cytometry, electronic “Height” (-H) parameter rather than the “Area” (-A) parameter was used to allow optimal signal detection.

`COc1cccc2c1C(=O)c1c(O)c3c(c(O)c1C2=O)C[C@@](O)(C(=O)CO)C[C@@H]3O[C@H]1C[C@H](N)[C@H](O)[C@H](C)O1` [DOX, doxorubicin]: the “Xkr8 mRNA expression” value in series [1] (HT-29 cells), in series [1] (PANC-1 cells), in series [2] (CT26 cells) and in series [2] (Panc02 cells) was “Induction” each time.

In the case of `CC(=O)N[C@@H](CS)C(=O)O` [NAC, N-acetylcysteine], the “effect of pretreatment on Xkr8 mRNA induction by the 3 drugs” value in series [1] (PANC-1 cells, NAC 12 h then drug 12 h) is given as “partially attenuated”; in series [2] (CT26 cells, NAC 12 h then drug 12 h) it was “partially attenuated”. Also, the “effect of pretreatment on Xkr8 protein induction by the 3 drugs” value in series [3] is “partially attenuated”.

As to `CC(=O)O[C@H]1C(=O)[C@@]2(C)[C@H]([C@H](OC(=O)c3ccccc3)[C@]3(O)C[C@H](OC(=O)[C@H](O)[C@@H](NC(=O)c4ccccc4)c4ccccc4)C(C)=C1C3(C)C)[C@]1(OC(C)=O)CO[C@@H]1C[C@@H]2O` [PTX, paclitaxel], the “Xkr8 mRNA expression” value in series [1] (HT-29 cells), in series [1] (PANC-1 cells), in series [2] (CT26 cells) and in series [2] (Panc02 cells) was “Induction” throughout.

As to `N=C(N)NC(=O)c1nc(Cl)c(N)nc1N` [amiloride], the “efficiency of silence after inhibitor pretreatment” value in series [4] is “drastically attenuated”.

Regarding `CN(C)CCCN1c2ccccc2Sc2ccc(Cl)cc21` [chlorpromazine], the “efficiency of silence after inhibitor pretreatment” value in series [4] is “drastically attenuated”.

Consider `C=C1[C@@H](C)[C@H]2[C@H](Cc3ccccc3)NC(=O)[C@]23[C@H](OC(C)=O)/C=C/[C@@](C)(O)C(=O)[C@@H](C)C/C=C/[C@H]3[C@@H]1O` [cytochalasin D], for which the “efficiency of silence after inhibitor pretreatment” value in series [4] is reported as “drastically attenuated”.

In the case of `O=C(N/N=C/c1ccc(O)c(O)c1)c1cc2ccccc2cc1O` [dynasore], in series [4], the “efficiency of silence after inhibitor pretreatment” value is on record as “drastically attenuated”. In series [5], the “effect on transcytosis-mediated transfection of CT26 cells” value is recorded as “significantly inhibited”.

In the case of `CCCCC[C@@H](O)[C@H]1C(=O)O[C@H](C)[C@@H](O)/C=C/C=C/C=C/C=C/C=C(\C)[C@@H](O)C[C@H](O)C[C@H](O)C[C@H](O)C[C@H](O)C[C@H](O)C[C@@H]1O` [filipin], the “efficiency of silence after inhibitor pretreatment” value in series [4] is given as “drastically attenuated”.

On to “siXkr8: Murine Xkr8 siRNA, Seq ID No 1 and 2, siRNA ID 164623 (chain 1 GGCACAAAUUUUAUGCCUG; chain 2 CAGGCAUAAAAUUUGUGCC; RNA, backbone not given here; further chemistry not fully specified; listed as Mus musculus)”, for which the “level of surface PS (Annexin V+ cells)” value in series [6] was “almost abolished”.
